Assay results published in article PMC4265395 (Malaria Journal, 2014).
Like-named read-outs stand apart in the source and are kept apart here. Marks after values point to notes of the source that are not given here.

Tests used:
[1] = tested on: CQ-R P. falciparum parasites (W2 clone); assay: anti-HRPII test, P. falciparum CQ-R W2 clone in culture; assay type: cell-based, Plasmodium falciparum; details: for SI (MLD50/IC50) W2 (CQ-R): MLD50 HepG2 / IC50 W2; for IC50: Plasmodium falciparum
Procedure: (§1) Before tests with the molecules were performed, ring stage parasites were synchronized using sorbitol and the parasitaemia and haematocrit were adjusted; 180 μL/well was added to 96-well microtiter plates (Corning, Santa Clara, CA, USA) containing the diluted compounds tested in triplicate. Drug activity was evaluated in relation to control cultures with no drugs and was measured using the anti-histidine-rich protein II (HRPII) test as described. CQ was used in each test as a control, and two to four experiments were performed for each parasite strain.
(§2) The cultures were added to plates containing the diluted drugs, followed by incubation for 24 h under standard culture conditions. The contents of six wells with no drugs were harvested in each test plate, pooled in microtubes, and frozen for later use to measure the background parasite growth as described. […] Phosphate-buffered saline (PBS) containing 0.05% Tween and 4% bovine serum albumin was used for plate blocking (3 h at room temperature) to avoid nonspecific antibody binding. After 1 h at room temperature, the plate was washed, and 100 μL/well of a secondary antibody solution (MPFG-55P ICLLAB®, USA) was added, followed by incubation with 3,3′,5,5′-tetramethylbenzidine (TMB) chromogen (KPL, Gaithersburg, MD, USA) in the dark. […] The anti-P. falciparum drug activity was evaluated by comparing the parasite growth in the drug-free control cultures, considered 100% growth, with that in the drug test cultures.

[2] = tested on: CQ-S P. falciparum parasites (3D7 strain); assay: anti-HRPII test, P. falciparum CQ-S 3D7 strain in culture; assay type: cell-based, Plasmodium falciparum; details: for SI (MLD50/IC50) 3D7 (CQ-S): MLD50 HepG2 / IC50 3D7; for IC50: Plasmodium falciparum; for Activity class against CQ-S parasites (3D7): in vitro, class by IC50
Procedure: as §1, §2

HepG2 cells = assay type: cell-based; details: human, 24 h
Procedure: A human hepatoma cell line (HepG2), originally received from the University of Lisbon as a kind gift, was cultured as described. […] When confluent, the cell monolayer was trypsinized, washed with culture medium supplemented with 10% FCS, counted, diluted (5 × 10^3 cells/well), placed in flat-bottom 96-well plates (Corning, Santa Clara, CA, USA), and incubated for 18 h at 37°C to allow cell adhesion. […] After 3 h, the supernatant was discarded, 100 μL of dimethyl sulphoxide (DMSO) was added per well, and the optical density was measured (SpectraMax340PC384, Molecular Devices) at 570 nm (test) and 630 nm (background). Cell viability was expressed as the percentage of the absorbance compared to the absorbance of the untreated cells and subtracted from the appropriate background measurement.

[3] = tested on: P. berghei NK65 CQ-resistant strain; assay type: in vivo, P. berghei in Swiss mice; details: for Activity class against CQ-resistant P. berghei in mice: 25 mg/kg
Procedure: (§3) The protocol for animal use was approved by the Ethics Committee for Animal Use (CEUA LW-23/13) of the Oswaldo Cruz Foundation (Fiocruz). Only Swiss adult female mice (20 ± 2 g weight) were used; they were raised at the animal facilities at FIOCRUZ-Minas.
A P. berghei NK65 CQ-resistant strain maintained at -70°C, selected by increasing doses of CQ, maintained in mice under constant drug pressure (CQ 150 mg/kg) and stored at -70°C was also defrosted and used to inoculate mice. […] The mice were inoculated with 10^7 parasitized RBCs using blood parasites from a donor with parasites resistant to 150 mg/kg of CQ. Groups of five mice each were separated 24 h after the parasite inoculation, then treated orally with the test CQAn at doses of 25 or 50 mg/kg for three consecutive days. Two control groups were used in each experiment; one received CQ at 150 mg/kg and the other was infected but treated with vehicle only (no drugs). The inhibition of parasitaemia was evaluated as described for the mice inoculated with the CQ-sensitive parasites.

[4] = tested on: P. berghei NK65 blood parasites (CQ-sensitive); set-up: method as in de Souza et al. [19]; details: 25 mg/kg, adapted from earlier paper, ref de Souza et al. [19], cited from earlier work
[5] = tested on: P. berghei NK65 blood parasites (CQ-sensitive); assay: Suppressive test in mice, CQ-sensitive P. berghei; assay type: in vivo, P. berghei in Swiss mice; details: for Inhibition of P. berghei parasitaemia, day 5 / Inhibition of P. berghei parasitaemia, day 7: 50 mg/kg dose; for Inhibition of P. berghei parasitaemia, day 5: day 5 after infection; for Inhibition of P. berghei parasitaemia, day 7: day 7 after infection; for Percentage reduction of parasitaemia, CQ-Sensitive, Day 5 / Percentage reduction of parasitaemia, CQ-Sensitive, Day 7: 25 mg/kg oral, four consecutive days, vs non-treated mice; for Percentage reduction of parasitaemia, CQ-Sensitive, Day 5: day 5 after inoculation; for Percentage reduction of parasitaemia, CQ-Sensitive, Day 7: day 7 after inoculation; for Mice surviving the infection at least 30 days after the end of treatment: P. berghei-infected mice, groups of five
Procedure: as §3
The suppressive test was performed as described using the P. berghei NK65 blood parasites, with some modifications. Briefly, the blood parasites were maintained through weekly blood passages in mice. For the experiments, groups of 20–30 mice were inoculated with 1 × 10^5 infected erythrocytes. Approximately three hours later, they were randomly distributed into groups of five to six mice per cage, which were treated daily by gavage for four consecutive days. All the compounds were freshly diluted in 3% DMSO (Sigma-Aldrich) in RPMI medium and were administered orally at doses of 25 mg/kg or 50 mg/kg. The control mice received the drug vehicle. On days 5 and 7 after parasite inoculation, blood was taken from the tail of each mouse and used to prepare thin smears, which were methanol-fixed, Giemsa-stained and examined microscopically to determine parasitaemia.

β-haematin formation = assay: Inhibition of β-haematin formation assay (lipid catalyst); assay type: biochemical
Procedure: The assay was performed using a lipid as a catalyst to promote crystallization. Briefly, drug stock solutions were prepared in DMSO and were used at a final concentration of up to 30 mM. A haem stock (10 mM) was made in DMSO and was diluted to 50 μM with 100 mM sodium acetate (pH 4.8). […] The plates were incubated at 37°C for 2 h to allow crystallization, followed by the addition of 100 μl of 200 mM sodium bicarbonate (pH 9.1) to solubilize any remaining monomeric haem. After incubation for 30 min at room temperature, the amount of solubilized monomeric haem was determined by measuring the absorbance at 405 nm. Finally, 20 μl of 1 M sodium hydroxide was added to the plates to dissolve any crystals that had been formed, and the absorbance was read at 405 nm to determine the total amount of haem present in each well. The inhibition of haem crystallization was determined as a function of the amount of monomeric haem that was not crystallized divided by the total amount of haem present in the assay mixture. The results are expressed as IC50 values based on the percentage inhibition of β-haematin formation by the CQAn.

[6] = W2, anti-HRPII method, average ± SD of two to four experiments, read-out: Anti-P. falciparum activity (IC50) W2 (CQ-R)
[7] = 3D7, anti-HRPII method, average ± SD of two to four experiments, read-out: Anti-P. falciparum activity (IC50) 3D7 (CQ-S)
[8] = 25 mg/kg (footnote b; head says 50 mg/kg)
[9] = 50 mg/kg oral, three consecutive days
[10] = experiment 1, read-out: Inhibitory concentration of β-haematin formation (IC50), Exp 1
[11] = experiment 2, read-out: Inhibitory concentration of β-haematin formation (IC50), Exp 2
[12] = experiment 3, read-out: Inhibitory concentration of β-haematin formation (IC50), Exp 3

Row | SMILES | SI (MLD50/IC50) W2 (CQ-R) [1] | IC50 [1, 6] | SI (MLD50/IC50) 3D7 (CQ-S) [2] | IC50 [2, 7] | Activity class against CQ-S parasites (3D7) [2] | Cytotoxicity MLD50 HepG2 cells (HepG2 cells) | Inhibition of P. berghei parasitaemia, day 5 [5] | Inhibition of P. berghei parasitaemia, day 7 [5] | Percentage reduction of parasitaemia, CQ-Resistant, Day 5 [3, 9] | Percentage reduction of parasitaemia, CQ-Resistant, Day 7 [3, 9] | IC50 (β-haematin formation; [10]) | IC50 (β-haematin formation; [11]) | IC50 (β-haematin formation; [12]) | Percentage reduction of parasitaemia, CQ-Sensitive, Day 5 [5] | Percentage reduction of parasitaemia, CQ-Sensitive, Day 7 [5] | also measured
1 | C#CCNCCCNc1ccnc2cc(Cl)ccc12 [CQAn28] | 2125 | 0.71 ± 0.03 µM | 101 | 14.9 ± 3.58 µM | inactive | 1508.56 ± 344.50 µM | – | – | – | – | – | – | – | – | – | Activity class against CQ-resistant P. berghei in mice [3]: inactive; Percentage reduction of parasitaemia, CQ-Resistant, Day 5 [3, 8]: 0^b %; Percentage reduction of parasitaemia, CQ-Sensitive, Day 5 [4]: 94^a %; Percentage reduction of parasitaemia, CQ-Sensitive, Day 7 [4]: 24^a %
2 | C#CCNCCCCNc1ccnc2cc(Cl)ccc12 [CQAn33] | 7645 | 0.02 ± 0.001 µM | 131 | 1.17 ± 0.1 µM | partially active (between 1–5 μM as partially active) | 152.89 ± 12.86 µM | 100% | 100% | 53% | 52% | 4700 µM | 3000 µM | 5600 µM | – | – | IC50 compared with that of CQ ([1]; relative to CQ, P. falciparum in vitro): more than 10 fold; β-haematin formation IC50 compared with that of CQ (β-haematin formation; relative to CQ): similar; Percentage reduction of parasitaemia, CQ-Sensitive, Day 5 [4]: 73^a %; Percentage reduction of parasitaemia, CQ-Sensitive, Day 7 [4]: 57^a %
3 | C#CCNCCNc1ccnc2cc(Cl)ccc12 [CQAn34] | 4101 | 0.23 ± 0.15 µM | 3144 | 0.3 ± 0.01 µM | active | 943.29 ± 73.15 µM | – | – | – | – | – | – | – | 99% | 81% | Activity class against CQ-resistant P. berghei in mice [3]: inactive; Percentage reduction of parasitaemia, CQ-Resistant, Day 5 [3, 8]: 0^b %
4 | C#CCN(CC#C)CCNc1ccnc2cc(Cl)ccc12 [CQAn37] | 24275 | 0.07 ± 0.03 µM | 2981 | 0.57 ± 0.24 µM | active | 1699.24 ± 10.07 µM | 100% | 100% | 47% | 33% | 2700 µM | 10200 µM | 7500 µM | 100% | 93% | Mice surviving the infection at least 30 days after the end of treatment [5]: Two of the five
5 | C#CCN(CC#C)CCCNc1ccnc2cc(Cl)ccc12 [CQAn39] | 5011 | 0.64 ± 0.29 µM | 1342 | 2.39 ± 0.11 µM | partially active (between 1–5 μM as partially active) | ≥3207.08 µM | – | – | 62% | 30% | – | – | – | 95% | 92% | –
6 | C#CCN(CC#C)CCCCNc1ccnc2cc(Cl)ccc12 [CQAn45] | – | 0.77 ± 0.21 µM | 868 | 1.17 µM | partially active (between 1–5 μM as partially active) | 1015.84 ± 42.97 µM | – | – | 63% | 51% | – | – | – | 88% | 50% | –
7 | CCN(CC)CCCC(C)Nc1ccnc2cc(Cl)ccc12 (stereo not shown) [Chloroquine, reference compound] | – | – | – | – | – | – | 100% | 100% | – | – | 600 µM | 2000 µM | 5000 µM | 100% | 97% | IC50 ([1]; W2, read-out: Anti-P. falciparum activity (IC50) W2 (CQ-R)): 0.38 ± 0.03 µM; IC50 ([2]; 3D7, read-out: Anti-P. falciparum activity (IC50) 3D7 (CQ-S)): 0.081 ± 0.019 µM; Mice surviving the infection at least 30 days after the end of treatment [5]: all
